The supplement of paper PMC10307832

Experiments:
Experiment in all cases: relative viability (nuclei count vs DMSO), 5 days (fraction); higher = more cells survive
[1] = compound: CC1=C(C(=NN1)C)CC2=C(C3=C(S2)N(C(=O)N(C3=O)C)CC(C)C)C(=O)N4C[C@@H](CO4)O + COc1cccc2cc(-c3nc([C@H]4CC[C@H](C(=O)O)CC4)n4ncnc(N)c34)[nH]c12 [OSI-027] (partner 0.5 µM)
Procedure, shortened: (§1)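 Relative viability divides the nuclei count in treated wells by that in vehicle wells. Lung cancer cell lines were seeded in 1536-well plates, dosed by pin tool the next day, and fixed and stained after 5 days in one step with final 0.05% Triton X-100, 1% formaldehyde and 1 ug/ml Hoechst. Dosing was a single drug or a fixed anchor-drug dose plus five library-drug doses (not always all listed) in √10 steps, and values are medians of duplicate plates imaged at 4×.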

[2] = compound: CC1=C(C(=NN1)C)CC2=C(C3=C(S2)N(C(=O)N(C3=O)C)CC(C)C)C(=O)N4C[C@@H](CO4)O + C[C@]1(O)C[C@@H](c2nc(-c3ccc4ccc(-c5ccccc5)nc4c3)c3c(N)nccn32)C1 [Linsitinib] (partner 1 µM)
Procedure, shortened: as §1

[3] = compound: CC1=C(C(=NN1)C)CC2=C(C3=C(S2)N(C(=O)N(C3=O)C)CC(C)C)C(=O)N4C[C@@H](CO4)O + N=C(N)NC(=N)NCCc1ccccc1 [Phenformin] (partner 250 µM)
Procedure, shortened: as §1

[4] = compound: Cc1ccccc1C(C(=O)NC1CCCCC1)N(C(=O)Cn1ccnc1C)c1cccc(F)c1 [IDH-C35] + CCNC(=O)c1noc(-c2cc(C(C)C)c(O)cc2O)c1-c1ccc(CN2CCOCC2)cc1 [Luminespib] (partner 0.01 µM)
Procedure, shortened: as §1

Row | Cell Line | relative viability ([1]; first compound 0.0025 µM) | relative viability ([1]; first compound 0.007906 µM) | relative viability ([1]; first compound 0.025 µM) | relative viability ([1]; first compound 0.07906 µM) | relative viability ([1]; first compound 0.25 µM) | relative viability ([2]; first compound 0.0025 µM) | relative viability ([2]; first compound 0.007906 µM) | relative viability ([2]; first compound 0.025 µM) | relative viability ([2]; first compound 0.07906 µM) | relative viability ([2]; first compound 0.25 µM) | relative viability ([3]; first compound 0.0025 µM) | relative viability ([3]; first compound 0.007906 µM) | relative viability ([3]; first compound 0.025 µM) | relative viability ([3]; first compound 0.07906 µM) | relative viability ([3]; first compound 0.25 µM) | relative viability ([4]; first compound 0.08 µM) | relative viability ([4]; first compound 0.253 µM) | relative viability ([4]; first compound 0.8 µM) | relative viability ([4]; first compound 2.53 µM) | relative viability ([4]; first compound 8 µM)
1 | EKVX | 0.677 | 0.712 | 0.666 | 0.716 | 0.592 | 0.978 | 1.05 | 0.939 | 1.05 | 1.04 | 0.241 | 0.224 | 0.233 | 0.243 | 0.227 | 0.93 | 0.908 | 0.822 | 0.842 | 0.845
2 | NCI-H2087 | 0.72 | 0.506 | 0.517 | 0.564 | 0.54 | 0.962 | 1.08 | 1.02 | 1.02 | 0.928 | 0.45 | 0.474 | 0.395 | 0.471 | 0.447 | 0.105 | 0.141 | 0.164 | – | 0.128
3 | LK-2 | 0.201 | 0.184 | 0.204 | 0.189 | 0.228 | 0.695 | 0.674 | 0.495 | 0.566 | 0.815 | 0.304 | 0.321 | 0.195 | 0.187 | 0.263 | 0.173 | 0.177 | 0.205 | 0.176 | 0.184
4 | NCI-H1437 | 0.894 | 0.892 | 0.867 | 0.93 | 0.857 | 1.03 | 1.21 | 1.01 | 1.1 | 1.08 | 0.318 | 0.313 | 0.301 | 0.297 | 0.306 | 1.08 | 1.04 | 1.06 | 1.06 | 1.1
5 | COR-L23 | 0.876 | 0.761 | 0.68 | 0.678 | 0.793 | 0.975 | 0.859 | 0.601 | 0.788 | 0.713 | 0.397 | 0.395 | 0.342 | 0.355 | 0.344 | 0.789 | 0.656 | 0.664 | 0.641 | 0.679
6 | ABC-1 | 0.55 | 0.459 | 0.583 | 0.517 | 0.52 | 0.676 | 0.793 | 0.905 | 1.27 | 0.8 | 0.18 | 0.174 | 0.173 | 0.186 | 0.214 | 0.598 | – | 0.688 | 0.805 | 0.818
7 | SW 900 | 0.671 | 0.66 | 0.55 | 0.659 | 0.54 | – | – | – | – | – | 0.735 | 0.675 | 0.535 | 0.779 | 0.589 | 0.175 | 0.178 | 0.181 | 0.179 | 0.162
8 | NCI-H838 | 0.396 | 0.451 | 0.409 | 0.384 | 0.387 | 1.02 | 1.08 | 0.987 | 1.02 | 1.04 | 0.567 | 0.594 | 0.433 | 0.453 | 0.489 | 0.319 | 0.3 | 0.266 | 0.331 | 0.24
9 | NCI-H1648 | 0.238 | 0.247 | 0.303 | 0.253 | 0.267 | – | – | – | – | – | – | – | – | – | – | – | – | – | – | –
10 | A549 | – | – | – | – | – | 0.591 | 0.624 | 0.574 | 0.72 | 0.649 | 0.116 | 0.0979 | 0.151 | 0.161 | 0.168 | – | – | – | – | –
11 | NCI-H1703 | – | – | – | – | – | 0.691 | 0.253 | 0.638 | 0.448 | 0.804 | – | – | – | – | – | – | – | – | – | –
12 | ChaGo-K-1 | 0.613 | 0.592 | 0.602 | 0.555 | 0.563 | – | – | – | – | – | 0.467 | 0.451 | 0.407 | 0.447 | 0.47 | 0.733 | 0.625 | 0.623 | 0.697 | 0.67
13 | Calu-6 | – | – | – | – | – | 0.974 | 0.933 | 0.877 | 0.907 | 0.952 | – | – | – | – | – | – | – | – | – | –
14 | HCC-366 | 0.937 | 1.16 | 1.18 | 1.09 | 0.933 | 0.593 | 0.771 | 0.59 | 0.62 | 0.712 | 0.622 | 0.574 | 0.669 | 0.606 | 0.693 | – | – | – | – | –
15 | NCI-H2342 | 0.588 | 0.584 | 0.624 | 0.618 | 0.587 | – | – | – | – | – | 0.493 | 0.532 | 0.398 | 0.384 | 0.401 | 0.818 | 0.617 | 0.803 | 0.631 | 0.7
16 | EBC-1 | – | – | – | – | – | 0.989 | 0.847 | 0.805 | 1.05 | 1.08 | – | – | – | – | – | – | – | – | – | –
17 | NCI-H1299 | – | – | – | – | – | 1.03 | 0.875 | 0.926 | 1 | 1.06 | – | – | – | – | – | – | – | – | – | –
18 | NCI-H522 | 0.804 | 0.624 | 0.608 | 0.45 | 0.546 | – | – | – | – | – | 0.551 | 0.686 | 0.376 | 0.327 | 0.265 | 0.958 | 1 | 1.1 | 1.22 | 1
19 | IA-LM | – | – | – | – | – | 0.686 | 0.509 | 0.552 | 0.525 | 0.94 | – | – | – | – | – | – | – | – | – | –
20 | NCI-H2170 | 0.736 | 0.792 | 0.687 | 0.726 | 0.681 | – | – | – | – | – | 0.377 | 0.384 | 0.432 | 0.378 | 0.378 | 0.678 | 0.799 | 0.684 | 0.687 | 0.72
